Measured values reported in ChEMBL document CHEMBL5252612, “A novel selective estrogen receptor degrader induces cell cycle arrest in breast cancer via ERα degradation and the autophagy-lysosome pathway” (Bioorg Med Chem, 2023).
Active and inactive are the calls of the source. No cut-off for these calls is given here.

What was measured:
[1] = target: T1, Estrogen receptor (Homo sapiens) (UniProt P03372); test: Induction of ER-alpha degradation in human T47D cells assessed as decrease in ER-alpha protein expression in presence of autophagy inhibitor, 3-MA of by western blot analysis; assay type: cell-based
T1 sequence (whole entry): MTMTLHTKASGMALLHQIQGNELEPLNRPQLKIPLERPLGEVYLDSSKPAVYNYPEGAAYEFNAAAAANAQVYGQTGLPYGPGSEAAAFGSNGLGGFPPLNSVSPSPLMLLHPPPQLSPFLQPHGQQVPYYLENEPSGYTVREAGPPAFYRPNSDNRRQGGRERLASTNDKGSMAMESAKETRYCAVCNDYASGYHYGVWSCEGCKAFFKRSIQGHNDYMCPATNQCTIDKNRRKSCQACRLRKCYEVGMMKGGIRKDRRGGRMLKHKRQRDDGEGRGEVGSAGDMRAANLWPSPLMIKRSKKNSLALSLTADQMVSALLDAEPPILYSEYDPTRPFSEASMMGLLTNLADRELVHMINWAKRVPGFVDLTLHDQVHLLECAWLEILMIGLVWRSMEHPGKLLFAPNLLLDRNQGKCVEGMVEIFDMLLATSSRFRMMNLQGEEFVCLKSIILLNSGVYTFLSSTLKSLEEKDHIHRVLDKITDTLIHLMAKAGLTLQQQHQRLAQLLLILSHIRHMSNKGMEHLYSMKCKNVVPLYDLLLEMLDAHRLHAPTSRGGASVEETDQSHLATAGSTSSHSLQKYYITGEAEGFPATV

[2] = Anticancer activity against ER-alpha positive human LCC2 cells assessed as reduction in cell viability measured after 48 hrs by CCK8 assay; assay type: functional, cell-based; settings: Homo sapiens, LCC2, 48 h; read-out: IC50
[3] = test system: T47D; test: Induction of apoptosis and necrosis in human T47D cells incubated for 48 hrs by AnnexinV-FITC/PI staining based flow cytometry (reference value: 3.73%); assay type: functional
[4] = test system: T47D; test: Induction of autophagy in human T47D cells assessed as upregulation of CTSD protein expression at 10 uM incubated for 24 hrs by western blot analysis; assay type: functional, cell-based
[5] = Induction of cell cycle arrest in tamoxifen-resistant human LCC2 cells assessed as proportion of cells at G1 phase at 10 uM by flow cytometry (reference value: 47.4%); assay type: functional
[6] = test system: T47D; test: Induction of cell cycle arrest in human T47D cells assessed as proportion of cells at G2 phase at 1 uM incubated for 24 hrs by flow cytometry (reference value: 24.4%); assay type: functional
[7] = test system: T47D; test: Induction of cell cycle arrest in human T47D cells assessed as proportion of cells at G1 phase at 10 uM incubated for 24 hrs in presence of autophagy inhibitor, 3-MA by flow cytometry (reference value: 58.3%); assay type: functional
[8] = test system: T47D; test: Induction of autophagy in human T47D cells assessed as increase in LC3 protein expression at 5 to 10 uM incubated for 24 hrs in presence of chloroquine by western blot analysis; assay type: functional, cell-based; settings: dose 5-10 µM
[9] = test system: LCC2; test: Inhibition of colony formation in tamoxifen-resistant human LCC2 cells at 1 uM incubated for 14 days by crystal violet staining based analysis; assay type: functional, cell-based; settings: time 14.0 day
[10] = test system: MCF7; test: Antitumor activity against human MCF7 cells xenografted in BALB/c nude mouse assessed as reduction in Ki67 expression in tumor at 2 to 4 mg/kg, ip administered every other day by immunohistochemistry; assay type: functional, organism-based; settings: dose 2-4 mg/kg
[11] = test system: MCF7; test: Induction of apoptosis in human MCF7 cells at 10 uM incubated for 48 hrs by TUNEL assay; assay type: functional, cell-based
[12] = target: T1, Estrogen receptor (Homo sapiens); test: Induction of ER-alpha degradation in human T47D cells overexpressing ER-alpha assessed as decrease in MYC protein expression at 10 uM incubated for 24 hrs by western blot analysis; assay type: cell-based
[13] = test system: MCF7; test: Anticancer activity against ER-alpha positive human MCF7 cells assessed as reduction in cell viability measured after 48 hrs by CCK8 assay; assay type: functional, cell-based
[14] = test system: MCF7; test: Induction of cell cycle arrest in human MCF7 cells assessed as proportion of cells at S phase at 1 uM incubated for 24 hrs by flow cytometry (reference value: 27.6%); assay type: functional
[15] = test system: T47D; test: Induction of autophagy in human T47D cells overexpressing ESR1 assessed as increase in lysosome number by LysoTracker dye based confocal microscopy; assay type: functional, cell-based
[16] = test system: T47D; test: Induction of apoptosis in human T47D cells at 10 uM incubated for 48 hrs by TUNEL assay; assay type: functional, cell-based
[17] = test system: MCF7; test: Induction of apoptosis and necrosis in human MCF7 cells assessed as live cells at 10 uM incubated for 48 hrs by AnnexinV-FITC/PI staining based flow cytometry (reference value: 92.97%); assay type: functional
[18] = Induction of cell cycle arrest in tamoxifen-resistant human LCC2 cells assessed as proportion of cells at S phase at 5 uM by flow cytometry (reference value: 28.4%); assay type: functional
[19] = test system: T47D; test: Induction of cell cycle arrest in human T47D cells assessed as proportion of cells at S phase at 1 uM incubated for 24 hrs by flow cytometry (reference value: 15.3%); assay type: functional
[20] = target: T1, Estrogen receptor (Homo sapiens); test: Induction of ER-alpha degradation in human T47D cells assessed as decrease in MYC protein expression at 10 uM incubated for 24 hrs by western blot analysis; assay type: cell-based
[21] = test system: T47D; test: Induction of cell cycle arrest in human T47D cells overexpressing MYC assessed as proportion of cells at G2 phase at 10 uM incubated for 24 hrs by flow cytometry (reference value: 48.5%); assay type: functional

- Activity [1]: Active
- Activity [12]: inactive
- IC50 ([13]; MCF7, 48 h): 16.4 µM
- Activity [20]: Active
SMILES: COc1ccc(N(CC(F)(F)F)S(=O)(=O)C2CC3OC2C(c2ccc(OCCN4CCCC4)cc2)=C3c2ccc(O)cc2)cc1 (configuration not stated)
- IC50 [2]: 10.5 µM
- Activity [3]: 21.43%
- Activity [4]: Active
- Activity [5]: 71.6%
- Activity [6]: 23.3%
- Activity [7]: 63.3%
- Activity [8]: Active
- inhibition [9]: Active
- Activity [10]: Active
- Activity [11]: Active
- Activity [13]: Dose-Dependent Effect
- Activity [14]: 15.7%
- Activity [15]: Active
- Activity [16]: Active
- Activity [17]: 83.71%
- Activity [18]: 13%
- Activity [19]: 9.47%
- Activity [21]: 52.5%
